Test results from ChEMBL document CHEMBL1133001, “Protection against oxidative damage by iron chelators: effect of lipophilic analogues and prodrugs of N,N'-bis(3,4,5-trimethoxybenzyl)ethylenediamine- N,N'-diacetic acid (OR10141)” (J Med Chem, 2000).

Experiment: Compound was tested for inhibition of hydrogen peroxide toxicity against human skin fibroblasts
Type: functional

Structure (SMILES)	IC50 [µM]
CCCCCCCOc1c(OC)cc(CN(CCN(CC(=O)O)Cc2cc(OC)c(OCCCCCCC)c(OC)c2)CC(=O)O)cc1OC	50
COc1cc(CN(CCN(CC(=O)OCOC(C)=O)Cc2cc(OC)c(OC)c(OC)c2)CC(=O)OCOC(C)=O)cc(OC)c1OC	3
